Measurements reported in patent publication US20140045824A1, “METHOD FOR PRODUCING COMPLEX CRYSTAL AND METHOD FOR SCREENING COMPLEX CRYSTAL” (priority 2011, published 2014).

Key:
Format in all cases: physicochemical
[1] = Cocrystal screening by heat melting 1-menthol (Example 1), powder X-ray diffraction and thermal analysis; design: key to Cocrystal formation, Example 1: A cocrystal was completely formed.; B: A mixture of a cocrystal and the host compound or guest compound was formed.; C: A cocrystal was not formed (a mixture of the host compound and the guest compound was formed); settings: host theophylline, equimolar guest, 1-menthol added, 4 hours at 80° C.
Method: Theophylline and a guest compound shown in Table 1 in an equimolar amount to theophylline were weighed and mixed using an agate mortar. […] Thereafter, the obtained mixed powder of theophylline, the guest compound, and 1-menthol was heated for 4 hours in an oven at 80° C., and the obtained solid was subjected to powder X-ray diffraction measurement and thermal analysis.

[2] = Cocrystal screening by co-grinding method (Comparative Example 2); design: key: A cocrystal was completely formed.; B: A mixture of a cocrystal and the host compound or guest compound was formed.; C: A cocrystal was not formed (a mixture of the host compound and the guest compound was formed); settings: host theophylline, equimolar guest, mixed/ground in agate mortar
Method: (§1) 3 mg (0.0167 mmoles) of theophylline and a guest compound shown in Table 1 in an equimolar amount (0.0167 mmoles) to theophylline were weighed and mixed using an agate mortar. At that time, particles having a large size to an extent that they could be distinguished through visual inspection were grinded on the agate mortar. The obtained solids were subjected to powder X-ray diffraction measurement and thermal analysis.

[3] = Cocrystal screening by heating method without menthol (Comparative Example 3); design: key: A cocrystal was completely formed.; B: A mixture of a cocrystal and the host compound or guest compound was formed.; C: A cocrystal was not formed (a mixture of the host compound and the guest compound was formed); settings: host theophylline, equimolar guest, no menthol, 4 hours at 80° C.
Method: 3 mg (0.0167 mmoles) of theophylline and a guest compound shown in Table 1 in an equimolar amount (0.0167 mmoles) to theophylline were weighed and mixed using an agate mortar. At that time, particles having a large size to an extent that they could be distinguished through visual inspection were grinded on the agate mortar. 10 mg of this mixed powder was weighed and put into a test tube, followed by heating for 4 hours in an oven at 80° C. The obtained solid was subjected to powder X-ray diffraction measurement and thermal analysis.

[4] = Cocrystal screening by slurry method (Comparative Examples 4-1 to 4-6), powder X-ray diffraction; design: key: A cocrystal was completely formed.; B: A mixture of a cocrystal and the host compound or guest compound was formed.; C: A cocrystal was not formed (a mixture of the host compound and the guest compound was formed); settings: host carbamazepine
Method: 3 mg (0.0127 mmoles) of carbamazepine and a guest compound shown in Table 4 in an equimolar amount (0.0127 mmoles) to carbamazepine were weighed and put into a glass container, to which was then added 60 μL of water. These were shaken at room temperature for 7 days, and the obtained residues were subjected to powder X-ray diffraction measurement. 3 mg (0.0127 mmoles) of carbamazepine and a guest compound shown in Table 4 in an equimolar amount (0.0127 mmoles) to carbamazepine were weighed and put into a glass container, to which was then added 60 μL of ethanol. These were shaken at room temperature for 7 days, and the obtained residues were subjected to powder X-ray diffraction measurement. 3 mg (0.0127 mmoles) of carbamazepine and a guest compound shown in Table 4 in an equimolar amount (0.0127 mmoles) to carbamazepine were weighed and put into a glass container, to which was then added 60 μL of tetrahydrofuran. These were shaken at room temperature for 7 days, and the obtained residues were subjected to powder X-ray diffraction measurement. 3 mg (0.0127 mmoles) of carbamazepine and a guest compound shown in Table 4 in an equimolar amount (0.0127 mmoles) to carbamazepine were weighed and put into a glass container, to which was then added 60 μL of toluene. These were shaken at room temperature for 7 days, and the obtained residues were subjected to powder X-ray diffraction measurement. 3 mg (0.0127 mmoles) of carbamazepine and a guest compound shown in Table 4 in an equimolar amount (0.0127 mmoles) to carbamazepine were weighed and put into a glass container, to which was then added 60 μL of ethyl acetate. These were shaken at room temperature for 7 days, and the obtained residues were subjected to powder X-ray diffraction measurement. 3 mg (0.0127 mmoles) of carbamazepine and a guest compound shown in Table 4 in an equimolar amount (0.0127 mmoles) to carbamazepine were weighed and put into a glass container, to which was then added 60 μL of acetone. These were shaken at room temperature for 7 days, and the obtained residues were subjected to powder X-ray diffraction measurement.

[5] = Cocrystal screening by mixing and grinding method (Comparative Example 5); design: key: A cocrystal was completely formed.; B: A mixture of a cocrystal and the host compound or guest compound was formed.; C: A cocrystal was not formed (a mixture of the host compound and the guest compound was formed); settings: host carbamazepine, equimolar guest, mixed/ground in agate mortar
Source text: as §1, with “Carbamazepine” for “3 mg (0.0167 mmoles) of theophylline”, “4” for “1”, “amount” for “amount (0.0167 mmoles)”, “carbamazepine” for “theophylline”

[6] = Cocrystal screening by heating method without menthol (Comparative Example 6); design: key: A cocrystal was completely formed.; B: A mixture of a cocrystal and the host compound or guest compound was formed.; C: A cocrystal was not formed (a mixture of the host compound and the guest compound was formed); settings: host carbamazepine, equimolar guest, no menthol, 4 hours at 80° C.
Method: Carbamazepine and a guest compound shown in Table 4 in an equimolar amount to carbamazepine were weighed and mixed using an agate mortar. At that time, particles having a large size to an extent that they could be distinguished through visual inspection were grinded on the agate mortar. 10 mg of this mixed powder was weighed and put into a test tube and heated for 4 hours in an oven at 80° C., and the obtained solids were subjected to powder X-ray diffraction measurement and thermal analysis.

Cocrystal formation, Example 1 [1]: A | Cocrystal formation, Comparative Example 2 [2]: C | Cocrystal formation, Comparative Example 3 [3]: B | Cocrystal formation, Comparative Example 4-6 ([4]; slurry in acetone, room temperature 7 days): C | Cocrystal formation, Comparative Example 4-2 ([4]; slurry in ethanol, room temperature 7 days): A | Cocrystal formation, Comparative Example 4-5 ([4]; slurry in ethyl acetate, room temperature 7 days): A | Cocrystal formation, Comparative Example 4-3 ([4]; slurry in tetrahydrofuran, room temperature 7 days): A | Cocrystal formation, Comparative Example 4-4 ([4]; slurry in toluene, room temperature 7 days): A | Cocrystal formation, Comparative Example 4-1 ([4]; slurry in water, room temperature 7 days): A | Cocrystal formation, Comparative Example 4* ([4]; slurry summary: A if a cocrystal was formed in any one of Comparative Examples 4-1 to 4-6): A | Cocrystal formation, Comparative Example 5 [5]: C | Cocrystal formation, Comparative Example 6 [6]: C
SMILES: O=C(O)/C=C\C(=O)O [Maleic acid]
